How the values were obtained:
Type in all cases: functional
Settings in all cases: read-out: DIZ
[1] = test system: Escherichia coli; assay: Antibacterial activity against Escherichia coli assessed as diameter of growth inhibition zone at 100 ug/ml after 24 hr by agar diffusion method
[2] = test system: Pseudomonas aeruginosa; assay: Antibacterial activity against Pseudomonas aeruginosa assessed as diameter of growth inhibition zone at 100 ug/ml after 24 hr by agar diffusion method
[3] = test system: Proteus mirabilis; assay: Antibacterial activity against Proteus mirabilis assessed as diameter of growth inhibition zone at 100 ug/ml after 24 hr by agar diffusion method
[4] = test system: Bacillus subtilis; assay: Antibacterial activity against Bacillus subtilis assessed as diameter of growth inhibition zone at 100 ug/ml after 24 hr by agar diffusion method
[5] = test system: Proteus mirabilis; assay: Antibacterial activity against Proteus mirabilis assessed as diameter of growth inhibition zone at 50 ug/ml after 24 hr by agar diffusion method
[6] = test system: Bacillus subtilis; assay: Antibacterial activity against Bacillus subtilis assessed as diameter of growth inhibition zone at 50 ug/ml after 24 hr by agar diffusion method
[7] = test system: Salmonella typhi; assay: Antibacterial activity against Salmonella enterica subsp. enterica serovar Typhi assessed as diameter of growth inhibition zone at 100 ug/ml after 24 hr by agar diffusion method
[8] = test system: Pseudomonas aeruginosa; assay: Antibacterial activity against Pseudomonas aeruginosa assessed as diameter of growth inhibition zone at 50 ug/ml after 24 hr by agar diffusion method
[9] = test system: Staphylococcus aureus; assay: Antibacterial activity against Staphylococcus aureus assessed as diameter of growth inhibition zone at 50 ug/ml after 24 hr by agar diffusion method
[10] = test system: Staphylococcus aureus; assay: Antibacterial activity against Staphylococcus aureus assessed as diameter of growth inhibition zone at 100 ug/ml after 24 hr by agar diffusion method
[11] = test system: Escherichia coli; assay: Antibacterial activity against Escherichia coli assessed as diameter of growth inhibition zone at 50 ug/ml after 24 hr by agar diffusion method
[12] = test system: Salmonella typhi; assay: Antibacterial activity against Salmonella enterica subsp. enterica serovar Typhi assessed as diameter of growth inhibition zone at 50 ug/ml after 24 hr by agar diffusion method

| SMILES | zone of inhibition at 100 µg/mL [1] [mm] | zone of inhibition at 100 µg/mL [2] [mm] | zone of inhibition at 100 µg/mL [3] [mm] | zone of inhibition at 100 µg/mL [4] [mm] | zone of inhibition at 50 µg/mL [5] [mm] | zone of inhibition at 50 µg/mL [6] [mm] | zone of inhibition at 100 µg/mL [7] [mm] | zone of inhibition at 50 µg/mL [8] [mm] | zone of inhibition at 50 µg/mL [9] [mm] | zone of inhibition at 100 µg/mL [10] [mm] | zone of inhibition at 50 µg/mL [11] [mm] | zone of inhibition at 50 µg/mL [12] [mm] |
| --- | --- | --- | --- | --- | --- | --- | --- | --- | --- | --- | --- | --- |
| O=[N+]([O-])c1ccc(N/N=C(/C=C/c2ccccc2)c2ccccc2)c([N+](=O)[O-])c1 | 8 | 8.5 | 9.5 | 9 | 6.5 | 6.5 | 8.5 | 6 | 6 | 8.5 | 6.5 | 6.5 |
| CC(/C=C/c1ccccc1)=N\Nc1ccccc1 | 8.5 | 8.5 | 9 | 8.5 | 6 | 6.5 | 8.5 | 6 | 6 | 8.5 | 6 | 6.5 |
| CC1=NC(=C/c2ccccc2)/C(=N/Nc2ccccc2)O1 | 9 | 8 | 8.5 | 9.5 | 6.5 | 6 | 8 | 6 | 14 | 16 | 6.5 | 6 |
| CC1=NC(=C/c2ccccc2)/C(=N/Nc2ccc([N+](=O)[O-])cc2[N+](=O)[O-])O1 | 8.5 | 8.5 | 9.5 | 9 | 6 | 6 | 8 | 6 | 6.5 | 9 | 6 | 6.5 |
| CC(/C=C/c1ccccc1)=N/Nc1nc(-c2ccccc2)cs1 | 9 | 8 | 8 | 8.5 | 6.5 | 6 | 8 | 6 | 6.5 | 9.5 | 6 | 6 |
| C(=C\c1ccccc1)/C(=N\Nc1nc(-c2ccccc2)cs1)c1ccccc1 | 8.5 | 8 | 8.5 | 8.5 | 6.5 | 6.5 | 8 | 6 | 6.5 | 8.5 | 7 | 6 |
| CC(/C=C/c1ccccc1)=N\Nc1ccc(-c2nc3ccccc3[nH]2)cc1 | 9 | 8 | 8.5 | 8.5 | 6.5 | 6 | 8 | 6 | 6.5 | 8 | 6.5 | 6 |
| C(=C\c1ccccc1)/C(=N/Nc1ccc(-c2nc3ccccc3[nH]2)cc1)c1ccccc1 | 8.5 | 8.5 | 8.5 | 8.5 | 6 | 6 | 8 | 6 | 6.5 | 9 | 6 | 6.5 |
| CC(/C=C/c1ccccc1)=N\NC(=O)c1ccncc1 | 8 | 8 | 8.5 | 8.5 | 6 | 6 | 8.5 | 6 | 6 | 8.5 | 6 | 6 |
| O=C(N/N=C(/C=C/c1ccccc1)c1ccccc1)c1ccncc1 | 8 | 8.5 | 8 | 8.5 | 6.5 | 6 | 8 | 6 | 6 | 8 | 6 | 6 |
| O=C(O)c1cn(C2CC2)c2cc(N3CCNCC3)c(F)cc2c1=O [CIPROFLOXACIN] | – | – | – | – | 19.5 | 18 | – | 19 | 18 | – | 18.5 | 18 |
